Reference: patent US8222416B2, “Azaindole glucokinase activators” (Hoffmann-La Roche Inc., priority 2009, dated 2012)

Experiments:
C57BL/6J mice = assay: Glucokinase activator in vivo screen, blood glucose after oral gavage in lean and diet induced obese mice; settings: Mus musculus, C57B6 mice, read-out: % gluc lowering @ 2 H; for change in vivo at 25 mg/kg: vs control at 2 hours post 25 mg/kg oral dose; for change in vivo at 50 mg/kg: vs control at 2 hours post 50 mg/kg oral dose
Experimental: Glucokinase Activator in vivo Screen Protocol in Lean and Diet Induced Obese Mice: Lean or Diet-Induced Obese (DIO) C57BL/6J mice were orally dosed via gavage with Glucokinase (GK) activator following a two hour fasting period. Blood glucose determinations were made at various (e.g. 0, 1, 2, 4 and 8 hours post-oral gavage) times during the study.
C57Bl/6J mice were obtained from Jackson Laboratory (Bar Harbor, Me.) and were maintained in a light-dark cycle with lights on from 0600-1800 hr. For studies in lean mice, the mice were received at age ten weeks and given ad libitum access to control diet (LabDiet 5001 chow, PMI Nutrition, Brentwood, Mo.), and were at least age 11 weeks at the time of study. For studies in the DIO model, the mice were received at age five weeks and given ad libitum access to Bio-Sery F3282 High Fat Diet (Frenchtown, N.J.), and were at least age 16 weeks at the time of study. The experiments were conducted during the light phase of the light-dark cycle. Mice (n=6) are weighed and fasted for a two hour period prior to oral treatment. GK activators are formulated in Gelucire vehicle (Ethanol:Gelucire44/14:PEG400q.s. 4:66:30 v/w/v. For studies in lean mice, the mice were dosed orally with 5.04 per gram of body weight (i.e. 5 ml/kg×10.0 mg/ml formulation to equal a 50 mg/kg dose). For studies in DIO mice, the mice were dosed orally with 5.04 per gram of body weight (i.e. 5.0 ml/kg×5 mg/ml formulation to equal a 25 mg/kg dose). Immediately prior to dosing, a pre-dose (time zero) blood glucose reading was acquired by snipping off a small portion of the animal's tail and collecting […] blood into a heparinized capillary tube for analysis. Following GK activator administration, additional blood glucose readings were taken at various time points post dose from the same tail wound. Results were interpreted by comparing the mean blood glucose values of vehicle treated mice with GK activator treated mice over the study period.
The Table below provides data for % glucose lowering of a representative number of compounds of the present invention vs control at 2 hours post 25 or 50 mg/kg dose in C57B6 mice: […]

[1] = target: T1, Recombinant human liver GK1 (GST-GK) (Homo sapiens, UniProt P35557); assay: In vitro glucokinase activity assay (G6PDH-coupled, NADH, OD340); assay type: biochemical; settings: concentration of activator that produced a 50% increase in the activity of GK; 5 mM D-glucose, 30° C.
T1 construct: made in house; host or cells: E. coli
T1 sequence (P35557 1-466 isoform P35557-2): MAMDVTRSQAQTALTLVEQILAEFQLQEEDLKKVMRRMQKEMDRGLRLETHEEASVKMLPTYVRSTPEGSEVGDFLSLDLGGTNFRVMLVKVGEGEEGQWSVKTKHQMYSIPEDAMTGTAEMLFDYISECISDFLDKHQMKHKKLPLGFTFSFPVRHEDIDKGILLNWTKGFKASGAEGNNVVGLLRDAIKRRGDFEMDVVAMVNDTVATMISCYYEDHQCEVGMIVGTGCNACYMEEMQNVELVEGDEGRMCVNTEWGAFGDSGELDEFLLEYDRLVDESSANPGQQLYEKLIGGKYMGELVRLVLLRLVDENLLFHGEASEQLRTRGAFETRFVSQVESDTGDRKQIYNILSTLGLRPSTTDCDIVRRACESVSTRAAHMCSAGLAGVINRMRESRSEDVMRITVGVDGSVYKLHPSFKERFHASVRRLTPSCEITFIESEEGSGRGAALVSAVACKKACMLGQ
Method in brief: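 GST-fused human liver GK1 from E. coli, run at 30° C. in pH 7.1 HEPES with 5 mM glucose, 1 mM ATP and 10% DMSO, coupled via G6PDH to NADH. OD340 rate measured after enzyme start; SC1.5 is the activator concentration raising activity 50% over DMSO control.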

| SC1.5 [1] [µM] | Compound | change in vivo at 25 mg/kg (C57BL/6J mice) [%] | change in vivo at 50 mg/kg (C57BL/6J mice) [%] |
| --- | --- | --- | --- |
| 1.1 | Clc1ccc(C(CC2CCCC2)c2cc3cccnc3[nH]2)cc1Cl (centres unmarked) [Example 139, 2-[2-Cyclopentyl-1-(3,4-dichloro-phenyl)-ethyl]-1H-pyrrolo[2,3-b]pyridine] | – | 25.4 |
| 0.05 | CS(=O)(=O)c1ccc([C@@H](CC2CCCC2)c2cc3cc(F)cnc3[nH]2)cc1 (single isomer, unassigned) [Example 118] | -48.4 | – |
| 0.21 | CS(=O)(=O)c1ccc([C@@H](CC2CCOCC2)c2cc3cc(F)cnc3[nH]2)cc1 (single isomer, unassigned) [Example 124] | -35 | – |
| 0.241 | CC(C)(O)c1ccc([C@@H](CC2CCCC2)c2cc3cc(F)cnc3[nH]2)cc1 (single isomer, unassigned) [Example 120] | -52 | – |
| 0.236 | CS(=O)(=O)c1ccc(C(CC2CCCC2)c2cc3cccnc3[nH]2)cc1 (centres unmarked) [Example 138, 2-[2-Cyclopentyl-1-(4-methanesulfonyl-phenyl)-ethyl]-1H-pyrrolo[2,3-b]pyridine] | – | -50.4 |
| 0.051 | CS(=O)(=O)c1ccc(/C(=C\C2CCOCC2)c2cc3cc(F)cnc3[nH]2)cc1 [Example 122, 5-Fluoro-2-[(E)-1-(4-methanesulfonyl-phenyl)-2-(tetrahydro-pyran-4-yl)-vinyl]-1H-pyrrolo[2,3-b]pyridine] | -59.4 | – |

Continued, molecule first:

| Compound | SC1.5 [1] [µM] | change in vivo at 25 mg/kg (C57BL/6J mice) [%] | change in vivo at 50 mg/kg (C57BL/6J mice) [%] |
| --- | --- | --- | --- |
| COc1cnc2[nH]c(C(CC3CCCO3)c3ccc(S(C)(=O)=O)cc3)cc2c1 (single isomer, unassigned) [Example 22, 2-[1-(4-Methanesulfonyl-phenyl)-2-(tetrahydro-furan-2-yl)-ethyl]-5-methoxy-1H-pyrrolo[2,3-b]pyridine] | 2.5 | -6.3 | – |
| CS(=O)(=O)c1ccc(C(CC2CCCC2)c2cc3cccnc3[nH]2)cn1 (centres unmarked) [Example 109, 2-[2-Cyclopentyl-1-(6-methanesulfonyl-pyridin-3-yl)-ethyl]-1H-pyrrolo[2,3-b]pyridine] | 2.1 | – | -31.6 |
| CS(=O)(=O)c1ccc([C@@H](CC2CCOCC2)c2cc3cccnc3[nH]2)cc1 (single isomer, unassigned) [Example 67] | 0.505 | -43.6 | – |
| COCc1cnc2[nH]c([C@H](CC3CCCC3)c3ccc(S(C)(=O)=O)cc3)cc2c1 (single isomer, unassigned) [Example 42] | 0.903 | -10.3 | – |
| CC(C)NC(=O)c1cnc2[nH]c(C(CC3CCCC3)c3ccc(S(C)(=O)=O)cc3)cc2c1 (centres unmarked) [Example 3, 2-[2-Cyclopentyl-1-(4-methanesulfonyl-phenyl)-ethyl]-1H-pyrrolo[2,3-b]pyridin-5-carboxylic acid isopropylamide] | 1.9 | – | -5.6 |
| CC(C)S(=O)(=O)c1ccc(C(CC2CCCC2)c2cc3cccnc3[nH]2)cc1 (centres unmarked) [Example 69] | 0.387 | – | -40.3 |
| CC(C)(O)c1ccc([C@@H](CC2CCCC2)c2cc3cccnc3[nH]2)cc1 (single isomer, unassigned) [Example 82] | 0.647 | -42.7 | – |
| COc1cnc2[nH]c([C@H](CC3CCOCC3)c3ccc(C(F)(F)F)cc3)cc2c1 (single isomer, unassigned) [Example 34] | 0.958 | -10.7 | – |
| CC(C)(O)c1ccc(C(CC2CCCC2)c2cc3cccnc3[nH]2)cc1F (centres unmarked) [Example 95, 2-{4-[2-Cyclopentyl-1-(1H-pyrrolo[2,3-b]pyridin-2-yl)-ethyl]-2-fluoro-phenyl}-propan-2-ol] | 0.379 | – | -49.4 |
| COc1cnc2[nH]c([C@H](CC3CCOCC3)c3ccc(S(C)(=O)=O)cc3)cc2c1 (single isomer, unassigned) [Example 32] | 1.1 | -23.4 | – |
| COCCOc1cnc2[nH]c([C@H](CC3CCCC3)c3ccc(S(C)(=O)=O)cc3)cc2c1 (single isomer, unassigned) [Example 16] | 0.21 | -31.3 | – |
| CC(C)Oc1cnc2[nH]c([C@H](CC3CCCC3)c3ccc(S(C)(=O)=O)cc3)cc2c1 (single isomer, unassigned) [Example 19] | 0.414 | -14.8 | – |
| CS(=O)(=O)c1ccc(C(CC2CCCCO2)c2cc3cccnc3[nH]2)cc1 (single isomer, unassigned) [Example 60, 2-[1-(4-Methanesulfonyl-phenyl)-2-(tetrahydro-pyran-2-yl)-ethyl-]-1H-pyrrolo[2,3-b]pyridine] | 0.451 | -29.9 | – |
